Laboratory results from patent US7713937B2, “Synthetic peptide amides and dimeric forms thereof” (Cara Therapeutics, Inc., priority 2006, dated 2010).
Square brackets hold non-standard residues; d marks the D form. Side chains are listed from the residue outwards. Peptide text beside a SMILES is read from it. * marks the point of attachment. Piperidinyl(4-(1-Pro-OH)) = O=C(O)[C@@H]1CCCN1C1CCN(*)CC1; Piperidin1yl(4-NH2,4-COOH) = NC1(C(=O)O)CCN(*)CC1; Homopiperazine(4-amidino) = N=C(N)N1CCCN(*)CC1; d(hArg) = N=C(N)NCCCC[C@@H](N)C(=O)O; Homopiperazinyl = C1CNCCN(*)C1; dAgp = N=C(N)NC[C@@H](N)C(=O)O; dOrn = NCCC[C@@H](N)C(=O)O

Columns and labels:
[1] = molecular target: T1, mouse kappa opioid receptor (mKOR) (Mus musculus, UniProt P33534); test: cell-based; conditions: for Emax: read-out: mKOR Efficacy(%)
T1 construct: Stimulation of Endogenous Mouse Kappa-Opioid Receptor in R1.G1 Cells; host or cells: R1.G1 mouse thymoma cells
T1 sequence (P33534 whole entry): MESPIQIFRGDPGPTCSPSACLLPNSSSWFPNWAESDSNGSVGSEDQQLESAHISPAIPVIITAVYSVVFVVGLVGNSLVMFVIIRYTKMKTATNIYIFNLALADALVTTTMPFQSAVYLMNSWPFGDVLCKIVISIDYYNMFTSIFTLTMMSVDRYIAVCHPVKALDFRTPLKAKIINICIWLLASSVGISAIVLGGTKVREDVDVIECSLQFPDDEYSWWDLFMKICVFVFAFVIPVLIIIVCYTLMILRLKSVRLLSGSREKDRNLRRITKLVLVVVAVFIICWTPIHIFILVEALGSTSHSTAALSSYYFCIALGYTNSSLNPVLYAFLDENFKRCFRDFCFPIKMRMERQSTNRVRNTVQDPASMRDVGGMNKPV

ICR mice = test: Acetic acid-induced writhing assay in mice; assay type: in vivo, mouse; conditions: iv; for ED50 (mg/kg, iv, 15 min post-dose): mice
[2] = molecular target: T2, human kappa opioid receptor (hKOR) (Homo sapiens, UniProt P41145); test: cell-based; conditions: for Emax: HEK293, read-out: hKOR Efficacy(%)
T2 construct: expressed in transfected cells; host or cells: HEK-293 cells, transient transfection with Fugene6
T2 sequence (P41145 whole entry): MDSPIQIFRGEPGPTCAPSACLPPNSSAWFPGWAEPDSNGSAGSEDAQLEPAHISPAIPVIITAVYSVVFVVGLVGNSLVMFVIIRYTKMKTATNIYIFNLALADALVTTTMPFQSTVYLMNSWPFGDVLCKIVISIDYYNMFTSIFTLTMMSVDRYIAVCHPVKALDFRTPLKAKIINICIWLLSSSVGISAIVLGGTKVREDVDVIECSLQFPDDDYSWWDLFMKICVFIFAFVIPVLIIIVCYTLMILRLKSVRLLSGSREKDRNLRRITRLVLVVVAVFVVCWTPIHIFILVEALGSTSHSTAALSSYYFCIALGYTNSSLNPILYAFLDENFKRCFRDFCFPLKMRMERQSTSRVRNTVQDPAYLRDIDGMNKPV

human mu opioid receptor = molecular target: T3, human mu opioid receptor (Homo sapiens, UniProt P35372); test: Similar assay for potency on the human mu opioid receptor; assay type: cell-based
T3 construct: expressed in transfected cells
T3 sequence (P35372 whole entry): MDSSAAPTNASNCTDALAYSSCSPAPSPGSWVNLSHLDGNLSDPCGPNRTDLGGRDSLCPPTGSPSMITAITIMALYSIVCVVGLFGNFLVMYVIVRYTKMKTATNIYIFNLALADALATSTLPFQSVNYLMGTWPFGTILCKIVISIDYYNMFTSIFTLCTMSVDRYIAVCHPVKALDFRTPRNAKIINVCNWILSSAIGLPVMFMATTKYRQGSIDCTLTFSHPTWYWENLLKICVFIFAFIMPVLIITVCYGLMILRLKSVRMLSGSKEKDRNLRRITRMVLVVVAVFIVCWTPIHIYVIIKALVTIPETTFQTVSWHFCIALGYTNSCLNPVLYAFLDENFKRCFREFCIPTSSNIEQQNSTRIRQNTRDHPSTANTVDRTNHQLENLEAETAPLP
Procedure: Synthetic peptide amides of the invention were tested in a similar assay for potency on the human mu opioid receptor.
The synthetic peptide amide (53) was tested in a similar assay for potency on the human mu opioid receptor.

[3] = Caco-2 (TC7 subclone) membrane permeability, apical-to-basolateral; conditions: human

In the case of `CC(C)C[C@@H](NC(=O)[C@@H](Cc1ccccc1)NC(=O)[C@H](N)Cc1ccccc1)C(=O)N[C@H](CCCCNC(=N)N)C(=O)N1CCC(N2CCC[C@H]2C(=O)O)CC1` [Compound (5), D-Phe-D-Phe-D-Leu-D-Har-[N-(4-piperidinyl)-L-proline]-OH] (H-[dF][dF][dL][d(hArg)]-{Piperidinyl(4-(1-Pro-OH))}), the EC50 [1] is reported as 0.034 nM, the Emax [1] is reported as 89% and the “ED50 (mg/kg, iv, 15 min post-dose)” value (ICR mice) is reported as 0.01 mg/kg. The “% MPE (180 min post-ED90)” value (ICR mice; 180 min post-ED90) was 54 ± 10%, the EC50 [2] was 0.17 nM and the Emax [2] was 98%.

For `CC(C)C[C@@H](NC(=O)[C@@H](Cc1ccccc1)NC(=O)[C@H](N)Cc1ccccc1)C(=O)N[C@H](CCCN)C(=O)N1CCCN(C(=N)N)CC1` [Compound (53), D-Phe-D-Phe-D-Leu-D-Orn-[4-amidinohomopiperazine amide]], the EC50 [1] was 0.03 nM, the EC50 (human mu opioid receptor) was at least 1000 nM and the EC50 [2] was 0.15 nM. The Emax [2] was 103%.

With `CC(C)C[C@@H](NC(=O)[C@@H](Cc1ccccc1)NC(=O)[C@H](N)Cc1ccccc1)C(=O)N[C@H](CCCCN)C(=O)N1CCC(N)(C(=O)O)CC1` [Compound (2), D-Phe-D-Phe-D-Leu-D-Lys-[ω(4-aminopiperidine-4-carboxylic acid)]-OH] the EC50 [1] was 0.048 nM, the Emax [1] was 96% and the “ED50 (mg/kg, iv, 15 min post-dose)” value (ICR mice) was 0.07 mg/kg. The “% MPE (240 min post-ED90)” value (ICR mice; 240 min post-ED90) was 81 ± 4%, the “% MPE (300 min post-ED90)” value (ICR mice; 300 min post-ED90) was 84 ± 4% and the EC50 [2] was 0.16 nM. The Emax [2] was 99%.

Work on `CNC(=C[N+](=O)[O-])NCCSCc1ccc(CN(C)C)o1` [Ranitidine, ranitidine] yielded a Papp A→B at 60 min, 10 μM [3] of 0.5 ×10⁻⁶ cm/s.

Work on `CC(C)C[C@@H](NC(=O)[C@@H](Cc1ccccc1)NC(=O)[C@H](N)Cc1ccccc1)C(=O)N[C@H](CCCCN)C(=O)N1CCN(c2cnccn2)CC1` [Compound (64), D-Phe-D-Phe-D-Leu-D-Lys-[2-(piperazin-1-yl)pyrazine amide]] yielded an Emax [1] of 85%, an EC50 [2] of 0.0293 nM and an Emax [2] of 100%.

In the case of `CC(C)C[C@@H](NC(=O)[C@@H](Cc1ccccc1)NC(=O)[C@H](N)Cc1ccccc1)C(=O)N[C@H](CCCCN)C(=O)N1CCN(C(=O)c2ccccc2)CC1` [Compound (70), D-Phe-D-Phe-D-Leu-D-Lys-[phenyl(piperazin-1-yl)methanone amide]], the EC50 [1] is reported as 0.348 nM, the Emax [1] is reported as 92% and the EC50 [2] is reported as 0.012 nM. It also gave an Emax [2] of 94%.

Work on `CC(C)C[C@@H](NC(=O)[C@@H](Cc1ccccc1)NC(=O)[C@H](N)Cc1ccccc1)C(=O)N[C@H](CCCCN)C(=O)N1CCC2(CCNC2=O)CC1` [Compound (25), D-Phe-D-Phe-D-Leu-D-Lys-[2,8-diazaspiro[4,5]decan-1-one amide]] yielded an EC50 [1] of 0.0314 nM, an Emax [1] of 82% and an EC50 [2] of 0.0027 nM. For the same compound, the Emax [2] was 101%.

`CC(C)C[C@@H](NC(=O)[C@@H](Cc1ccccc1)NC(=O)[C@H](N)Cc1ccccc1)C(=O)N[C@H](CCCCN)C(=O)N1CCC(n2c(=O)[nH]c3cc(Cl)ccc32)CC1` [Compound (28), D-Phe-D-Phe-D-Leu-D-Lys-[5-chloro-1-(piperidin-4-yl)-1H-benzo[d]imidazol-2(3)H-one amide]] gave an Emax [1] of 83% and an Emax [2] of 100%.

`CC(C)C[C@@H](NC(=O)[C@@H](Cc1ccccc1)NC(=O)[C@H](N)Cc1ccccc1)C(=O)N[C@H](CCCCN)C(=O)N1CCC(n2c(=O)[nH]c3ccccc32)CC1` [Compound (36), D-Phe-D-Phe-D-Leu-D-Lys-[1-(piperidin-4-yl)-1H-benzo[d]imidazol-2(3H)-one amide]] showed an Emax [1] of 87% and an Emax [2] of 100%.

For `CC(C)C[C@@H](NC(=O)[C@@H](Cc1ccccc1)NC(=O)[C@H](N)Cc1ccccc1)C(=O)N[C@H](CCCCN)C(=O)N1CCN(c2ncccn2)CC1` [Compound (63), D-Phe-D-Phe-D-Leu-D-Lys-[2-(piperazin-1-yl)pyrimidine amide]], the EC50 [1] was 0.12 nM, the Emax [1] was 78% and the EC50 [2] was 0.0073 nM. For the same compound, the Emax [2] was 98%.

Work on `CC(C)C[C@@H](NC(=O)[C@H](N)Cc1ccccc1)C(=O)N[C@H](CCCN)C(=O)N[C@@H](CCCCNC(=O)[C@@H](CCCN)NC(=O)[C@@H](CC(C)C)NC(=O)[C@@H](Cc1ccccc1)NC(=O)[C@H](N)Cc1ccccc1)C(=O)O` [Compound (78)] yielded an EC50 [1] of 0.24 nM and an Emax [2] of 95%.

Work on `CC(C)C[C@@H](NC(=O)[C@@H](Cc1ccccc1)NC(=O)[C@H](N)Cc1ccccc1)C(=O)N[C@H](CNC(=N)N)C(=O)N1CCC(N2CCC[C@H]2C(=O)O)CC1` [Compound (14), D-Phe-D-Phe-D-Leu-D-Dap(amidino)-[N-(4-piperidinyl)-L-proline]-OH] (H-[dF][dF][dL][dAgp]-{Piperidinyl(4-(1-Pro-OH))}) yielded an EC50 [1] of 0.349 nM, an Emax [1] of 86% and an EC50 [2] of 0.21 nM. For the same compound, the Emax [2] was 81%.

For `CC(C)C[C@@H](NC(=O)[C@@H](Cc1ccccc1)NC(=O)[C@H](N)Cc1ccccc1)C(=O)N[C@H](CNC(=N)N)C(=O)N1CCC(N)(C(=O)O)CC1` [Compound (10), D-Phe-D-Phe-D-Leu-(β-amidino)D-Dap-[ω(4-aminopiperidine-4-carboxylic acid)]-OH] (H-[dF][dF][dL][dAgp]-{Piperidin1yl(4-NH2,4-COOH)}), the EC50 [1] was 0.826 nM, the Emax [1] was 90% and the EC50 [2] was 0.3 nM. For the same compound, the Emax [2] was 86%.

For `CC(C)C[C@@H](NC(=O)[C@@H](Cc1ccccc1)NC(=O)[C@H](N)Cc1ccccc1)C(=O)N[C@H](CCCN)C(=O)NCCCC[C@H](NC(=O)[C@H](N)CCCN)C(=O)O` [Compound (79)], the EC50 [1] was 0.08 nM, the Emax [1] was 101% and the EC50 [2] was 0.13 nM.

Work on `CC(C)C[C@@H](NC(=O)[C@@H](Cc1ccccc1)NC(=O)[C@H](N)Cc1ccccc1)C(=O)N[C@H](CCCNC(=N)N)C(=O)N1CCCNCC1` [Compound (7), D-Phe-D-Phe-D-Leu-D-Arg-[homopiperazine amide]] (H-[dF][dF][dL][dR]-Homopiperazinyl) yielded an EC50 [1] of 0.012 nM, an Emax [1] of 98% and an EC50 [2] of 0.11 nM. The Emax [2] was 100%.

In the case of `CC(C)C[C@@H](NC(=O)[C@@H](Cc1ccccc1)NC(=O)[C@H](N)Cc1ccccc1)C(=O)N[C@H](CCCNC(=N)N)C(=O)N1CCCN(C(=N)N)CC1` [Compound (24), D-Phe-D-Phe-D-Leu-D-Arg-[4-amidinohomopiperazine amide]] (H-[dF][dF][dL][dR]-{Homopiperazine(4-amidino)}), the EC50 [1] is reported as 0.036 nM, the Emax [1] is reported as 97% and the EC50 [2] is reported as 0.09 nM. The Emax [2] was 93%.

`CC(C)C[C@@H](NC(=O)[C@@H](Cc1ccccc1)NC(=O)[C@H](N)Cc1ccccc1)C(=O)N[C@H](CCCN)C(=O)NCCCC[C@H](NC(=O)[C@@H](CCCN)NC(=O)[C@@H](CC(C)C)NC(=O)[C@@H](Cc1ccccc1)NC(=O)[C@H](N)Cc1ccccc1)C(N)=O` [Compound (80)] (H-[dF][dF][dL][dOrn]K([dOrn-dL-dF-dF])-NH2) gave an EC50 [1] of 1.3 nM, an Emax [1] of 91% and an EC50 [2] of 0.25 nM.
